Laboratory results published in patent publication US12263248B2, “Compounds and compositions for intracellular delivery of therapeutic agents” (ModernaTX, Inc., priority 2018, dated 2025).

Experiments:
[1] = Apparent (surface) pKa of the LNP formulation (TNS assay); assay type: physicochemical
Outline: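 LNP (0.04 mg/mL mRNA) mixed with TNS reagent in 21 buffers spanning about pH 3-12, in triplicate; fluorescence plotted against pH as sigmoidal curve. Apparent pKa taken as […] curve inflection point; validated in 1× PBS and 20 mM Tris w/8% sucrose.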

[2] = Lipid clearance: lipid level in mouse liver tissue (LC-MS/MS); assay type: in vivo; details: Table 3D, intravenous
Experimental: Quantification of Lipid by LC-MS/MS: Liver samples were homogenized following addition of 19 eq. (w/v) of water (DF=20). Protein was precipitated and analyzed against calibration standards prepared in matching blank. Chromatographic separation and quantification was accomplished with a LC-MS/MS System. Samples were injected and separated via HPLC A triple-quadrupole MS/MS system operated in positive ion mode was used for signal detection.

luciferase (Luc) mRNA [3] = assay: Luc expression in liver, lung, spleen and femur 6 hours after intravenous administration; assay type: in vivo; details: mice, 0.5 mpk
Outline: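 LNP-formulated mRNA given IV to mice (n=3) at 0.5 mpk; at 6 h, bioluminescence imaged ex vivo 15 min after IP D-luciferin (15 mg/mL, 200 μL), organs imaged within 25 min. Values are total flux by region of interest.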

luciferase (Luc) mRNA [4] = assay: Luc expression, whole body bioluminescence after intravenous administration to mice; assay type: in vivo; details: for Lipid/MC3 AUC / AUC (p/s * h): Table 3D; for AUC (p/s * h): Luc; for Novel lipid/MC3 ratio, 6 hr. timepoint, i.v.: luciferase, relative to MC3, Table 3G; for Total Flux 3 hours / Total Flux 6 hours / Total Flux 24 hours: i.v., 0.5 mg/kg, Luc mRNA
Outline: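 Luc mRNA nanoparticle formulations given intravenously to mice (n=6) at 0.5 mg/kg; whole-body bioluminescence imaged at 3, 6 and 24 h. CD-1 mice received IP D-luciferin (200 μL of 15 mg/mL) 15 min before imaging; total flux quantified by region of interest.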

hEPO mRNA [5] = assay: hEPO expression after subcutaneous administration to mice; assay type: in vivo, female CD-1 mice; details: for hEPO expression Lipid/Compound 18 ratio, 6 hr. / hEPO expression Lipid/Compound 18 ratio, AUC: 0.5 mpk
Experimental: The effect of the lipids of the disclosure on protein expression upon subcutaneous administration was studied. Formulations containing lipids of the disclosure and an mRNA expressing luciferase or hEPO were administered subcutaneously to female CD-1 mice at 0.5 mpk. Expression levels were obtained via whole body luminescent imaging (BLI) at 3, 6 and 24 hours after injection and expression levels in liver, spleen and at the injection site were evaluated ex vivo after 24 hours. […] See also Tables 35 and 36, and FIGS. 19 and 27.
Table 36 summarizes the hEPO expression levels using various nanoparticle compositions of the disclosure as compared to the hEPO expression level using a formulation containing MC3 or Compound 18, following subcutaneous administration, as described above.

[6] = Encapsulation efficiency of RNA (QUANT-IT RIBOGREEN RNA assay); assay type: physicochemical; details: for % EE: Table 1D, for subcutaneous administration, # formulated with hEPO mRNA
Outline: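 RiboGreen fluorescence (ex ~480, em ~520 nm) compared between intact samples and Triton X-100-lysed samples after 15 min at 37 °C in TE buffer, pH 7.5. Percent free RNA is the blank-corrected intact/disrupted ratio.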

[7] = Particle size and polydispersity index of nanoparticle compositions (Zetasizer Nano ZS); assay type: physicochemical
Outline: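 Nanoparticle compositions are diluted in 1×PBS, then size and polydispersity index are read on a Zetasizer Nano ZS instrument.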

IL-6, IP-10 = assay: Cytokine induction in mice upon intravenous administration; assay type: in vivo; set-up: Cytokine induction IL-6 / Cytokine induction IP-10: unit not given here; details: intravenous, 0.5 mpk, 6 hours
Excerpt: The introduction of foreign material into a mammalian body induces an innate immune response that promotes cytokine production. Such immune responses to, for example, nanoparticle compositions including therapeutic and/or prophylactics, are undesirable. The induction of certain cytokines is thus measured to evaluate the […] of nanoparticle compositions. The concentrations of various cytokines in mice upon intravenous administration of nanoparticle compositions presented in Table 1A at a dosage of 0.5 mpk was measured at 6 hours. The standard MC3 formulation and a PBS control were also tested. As is evident in Table 7, IL-6 induction was highest for compositions including Compounds 1, 3, 9, 19, and 26, while IP-10 induction was highest for compositions including Compounds 3, 4, 7, 20, and 26. IL-6 induction was lowest for compositions including Compounds 4, 11, 12, and 28. IP-10 induction was lowest for compositions including Compounds 10, 11, 12, 13, 15, 17, and 18.

[8] = Chemical stability of lipids in ethanol (lipid purity); assay type: physicochemical
Experimental: Ester linkages were previously reported to trigger metabolism by esterases in vivo. (See Fukami, T. et al. Drug Metab. Pharmacokinet. 2012, 27, 466-477, the content of which is incorporated by reference herein in its entirety). […] (See Maier M. A., Mol. Ther. 2013, 21, 1570-1578, the content of which is incorporated herein in its entirety) First, the chemical stability of the lipids was evaluated by measuring ethanol stability at room temperature and 37° C. (Table 39). […] LNPs formed with compound 138 were larger, with a surface pKa>7. […] Removal of one ester function (compound 136) afforded LNPs with improved physiochemical characteristics and lower LNP surface pKa.

hEPO mRNA [9] = assay: hEPO expression after intravenous administration to rats; assay type: in vivo, rat; details: Table 19B
Experimental: The expression of hEPO and cytokine induction in rats intravenously administered a nanoparticle composition at a dose of 2.0 mpk was measured at 6 h.
(§1) The expression of hEPO in rats intravenously administered a nanoparticle composition at a dose of 0.2 mpk or 2.0 mpk was measured at 6 hours. Table 16 summarize the ratio of hEPO expression levels using various nanoparticle compositions as compared to the hEPO expression level using MC3 formulation and the lipid levels in the liver measured 48 hours after administration, as described above. Tables 17 and 18 summarize the lipid levels in the liver and spleen measured 48 hours after administration of Compounds 28, 33, 53, and 54. Liver and spleen levels represent the average values calculated for 3 rats in each group. As is shown in Tables 17 and 18, less than 10% of Compounds 28, 33, 53, and 54 remained in the liver after 48 hours, while greater than 60% of MC3 remained.
The expression of hEPO induced by intravenous administration to rats of nanoparticle compositions at various doses was measured at 2, 4, 6, 8, 24, and 48 hour time points. FIGS. 3-6 respectively summarize the hEPO expression measured upon intravenous administration of formulations including Compounds 26, 18, 25, and MC3 to rat at various doses. The lipid levels of Compound 26 in the liver after 48 hours were about 19%.
(§2) 005781 The expression of hEPO and lipid levels in the liver and spleen in rats intravenously administered a nanoparticle composition at a dose of 0.2 mpk was measured at various time points. Compounds 18 and 25 were selected for comparison with MC3. Lipids were formulated according to the standard MC3 formulation described above. Rats were administered intravenously a single 0.2 mpk dose and expression monitored at 0.25, 0.5, 1, 2, 4, 8, 24, and 48 hours after administration.
Blood collection and analysis for hEPO. Blood was collected from mice or rats via the tail vein and hEPO concentrations were determined using a hEPO ELISA assay.

[10] = Residual lipid levels in rat liver and spleen (UPLC-MS); assay type: in vivo; details: Table 19B, liver, 24 h
Experimental: At 48 h liver tissue was harvested for lipid quantification. To pre-weighed tissues, Milli-Q water was added (900 μL water per 100 mg tissue). Tissues were homogenized using an Omni probe homogenizer until uniform. 50 μL of samples and matrix calibration standards were aliquoted into a 96-well plate. 50 μL of blank matrix for matrix blanks and control blanks were aliquoted. 400 μL is spiking solution were manually added to all samples except matrix blanks. 400 μL of 50:50 ACN:IPA were manually added to matrix blanks. The plate was covered and the samples vortexed and centrifuged for 5 minutes at >3000 rpm. 200 μL of the samples were transferred into a clean 96-well plate for analysis. Samples were analyzed on a Waters Acquity UPLC using a Higgins Analytical Clipeus C8 column ([…], 30×2.1 mm) and a gradient of either 70-95% or 60-95% (Mobile Phase A: 5 mM ammonium formate in 50:50:1 H2O:MeOH:formic acid; Mobile Phase B: 5 mM ammonium formate in 100:1 MeOH:formic acid) over 1.3 min at 1.2 mL/min (column temperature 55° C.). Detection was based on electrospray ionization (ESI) in positive mode using a Sciex API5500 Mass Spectrometer.
as §1, §2

[11] = second column (head also says 6 h)
[12] = Table 1A, lipid:DSPC:cholesterol:PEG-DMG 50:10:38.5:1.5 mol %
[13] = Table 1D, for subcutaneous administration, # formulated with hEPO mRNA
[14] = lipid nanoparticle, ±SD within one assay run (Table 37)
[15] = Table 1B, formulated with hEPO mRNA

Row | SMILES | pKa ([1]; Table 1A) | % Dose Remaining in Liver 6 h [2, 11] [%] | % Dose Remaining in Liver 6 h [2] [%] | Total Flux Liver (luciferase (Luc) mRNA [3]; intravenous) | Total Flux Lung (luciferase (Luc) mRNA [3]; intravenous) | Total Flux Spleen (luciferase (Luc) mRNA [3]; intravenous) | Lipid/MC3 AUC (luciferase (Luc) mRNA [4]; intravenous) | AUC (p/s * h) (luciferase (Luc) mRNA [4]; intravenous) | Novel lipid/MC3 ratio, 6 hr. timepoint, i.v. (luciferase (Luc) mRNA [4]; intravenous) | Total Flux 3 hours (luciferase (Luc) mRNA [4]; mice) | Total Flux 6 hours (luciferase (Luc) mRNA [4]; mice) | Total Flux 24 hours (luciferase (Luc) mRNA [4]; mice) | hEPO expression Lipid/Compound 18 ratio, 6 hr. (hEPO mRNA [5]) | hEPO expression Lipid/Compound 18 ratio, AUC (hEPO mRNA [5]) | EE (%) ([6]; Table 1A) | % EE [6] [%] | PDI ([7]; Table 1A) | Size (nm) [7, 12] [nm] | PDI [7, 13] | Size (nm) [7, 13] [nm] | other results
1 | CCCCCCCCCC(=O)OCCCCCCCN(CCO)CCCCCCCOC(=O)C(CCCCCCCC)CCCCCCCC [Compound 151, 7-((7-(Decanoyloxy)heptyl)(2-hydroxyethyl)amino)heptyl 2-octyldecanoate] | 6.593 | <1 | <1 | 4.72E+09 | 9.20E+06 | 9.27E+07 | 3.7 | 7.010E+011 | 3.29 | 5.63E+10 | 5.68E+10 | 2.23E+09 | 0.73 | 0.71 | 87.86 | 95.4 | 0.140 | 105.7 | 0.13 | 77.6 | Apparent pKa ([1]; Table 3G): 6.59
2 | CCCCCCCCCOC(=O)CCCCCCCN(CCCCCCCC(=O)OC(CCCCCCCC)CCCCCCCC)CCN(C)C [Compound 14, Heptadecan-9-yl 8-((2-(dimethylamino)ethyl)(8-(nonyloxy)-8-oxooctyl)amino)octanoate] | 6.58 | – | – | 1.91E+08 | 4.74E+06 | 1.92E+08 | – | – | – | 4.43E+08 | 2.29E+09 | 1.39E+08 | – | – | 95.24 | – | 0.15 | 130.1 | – | – | pKa [1, 14]: 6.58 ± 0.11; Cytokine induction IL-6 (IL-6, IP-10): 75.29; Cytokine induction IP-10 (IL-6, IP-10): 621.49; Total Flux Femur (luciferase (Luc) mRNA [3]; intravenous, femur): 4.91E+06; luciferase activity relative to MC3 LNP control (luciferase (Luc) mRNA [4]; mice, intravenous, 0.5 mg/kg (mRNA dose)): complete loss of delivery efficiency; % Encapsulation [6, 14]: 95.2 ± 0.5%; PDI (Polydispersity index) [7, 14]: 0.15 ± 0.07; Size [7, 14]: 130.1 ± 3.5 nm; Lipid Purity ([8]; t = 0): 92.08%; Lipid Purity ([8]; t = 96 h, 25° C.): 92.07%; Lipid Purity ([8]; t = 96 h, 37° C.): 91.90%
3 | CCCCCCCCCOC(=O)CCCCCCCN(CCCCCCCC(=O)OC(CCCCCCCC)CCCCCCCC)CCCN/C(=N/S(C)(=O)=O)N(C)C [Compound 233, Heptadecan-9-yl (Z)-8-((3-(3,3-dimethyl-2-(methylsulfonyl)guanidino)propyl)(8-(nonyloxy)-8-oxooctyl)amino)octanoate] | – | – | – | – | – | – | – | – | – | – | – | – | – | – | 97.81 | 97.5 | 0.11 | 66.9 | 0.13 | 87.0 | AUC (hEPO) (hEPO mRNA [9]): 129000 pg·h/mL; Lipid/MC3 ([hEPO] ratio) (hEPO mRNA [9]; relative to MC3): 0.00664; Lipid/MC3 AUC (hEPO mRNA [9]; relative to MC3): 0.01; [hEPO] (hEPO mRNA [9]; species, dose and time not given): 9800 pg/mL; % dose remaining, liver, 24 h [10]: 0.07%; Novel lipid/MC3 expression ratio, 6 hr. time point, s.c. hEPO 0.5 mpk (hEPO mRNA [5]; relative to MC3): 0.03; EE (%) [6, 15]: 97.6%; PDI [7, 15]: 0.21; Size (nm) [7, 15]: 93.7 nm
4 | CCCCCCCCCC(=O)OCCCCCCCN(CCO)CCCCCCCC(=O)OC(CCCCCCCC)CCCCCCCC [Compound 96, 7-((8-(Heptadecan-9-yloxy)-8-oxooctyl)(2-hydroxyethyl)amino)heptyl decanoate] | 6.600 | <1 | <1 | 1.56E+10 | 3.43E+07 | 3.39E+08 | 6.3 | 1.209E+012 | 6.11 | 4.54E+10 | 1.05E+11 | 3.86E+09 | 1.98 | 1.72 | 79.04 | 94.4 | 0.160 | 120.5 | 0.14 | 82.6 | Flux in the liver (luciferase (Luc) mRNA [3]; i.v., in words): highest
